# According to ChEMBL document CHEMBL4819093, “Discovery of 1-[2-(1-methyl-1H-pyrazol-5-yl)-[1,2,4]triazolo[1,5-a]pyridin-6-yl]-3-(pyridin-4-ylmethyl)urea as a potent NAMPT (nicotinamide phosphoribosyltransferase) activator with attenuated CYP inhibition” (Bioorg Med Chem Lett, 2021):
# Target: T1, Nicotinamide phosphoribosyltransferase (Homo sapiens, UniProt P43490)
# Assay: Inhibition of human NAMPT assessed as decrease in NMN production by fluorescence based analysis
# Settings: not given
# T1 sequence (P43490 whole entry): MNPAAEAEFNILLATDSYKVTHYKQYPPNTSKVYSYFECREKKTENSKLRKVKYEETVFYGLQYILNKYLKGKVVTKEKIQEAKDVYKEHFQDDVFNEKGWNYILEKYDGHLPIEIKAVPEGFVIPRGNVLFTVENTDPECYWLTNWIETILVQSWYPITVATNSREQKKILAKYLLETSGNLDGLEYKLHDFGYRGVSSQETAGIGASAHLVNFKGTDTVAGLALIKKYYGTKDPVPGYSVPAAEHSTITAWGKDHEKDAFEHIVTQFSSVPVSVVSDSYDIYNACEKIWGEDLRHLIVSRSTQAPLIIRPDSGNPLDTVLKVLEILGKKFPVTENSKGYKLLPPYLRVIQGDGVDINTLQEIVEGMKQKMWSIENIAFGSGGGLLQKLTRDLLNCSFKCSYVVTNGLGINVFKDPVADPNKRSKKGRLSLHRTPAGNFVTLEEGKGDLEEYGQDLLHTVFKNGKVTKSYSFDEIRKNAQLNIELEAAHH
row,IC50 [µM],Structure (SMILES)
1,0.032,Cc1ccc(C(=O)N2CCc3cc(NC(=O)NCc4cccnc4)ccc32)cc1

# Target: CYP3A4 (Homo sapiens, UniProt P08684)
# Assay: Inhibition of CYP3A4 (unknown origin) at 10 uM measured after 10 mins
# Assay type: ADME
# Settings: not given
# Sequence of CYP3A4 (P08684 whole entry): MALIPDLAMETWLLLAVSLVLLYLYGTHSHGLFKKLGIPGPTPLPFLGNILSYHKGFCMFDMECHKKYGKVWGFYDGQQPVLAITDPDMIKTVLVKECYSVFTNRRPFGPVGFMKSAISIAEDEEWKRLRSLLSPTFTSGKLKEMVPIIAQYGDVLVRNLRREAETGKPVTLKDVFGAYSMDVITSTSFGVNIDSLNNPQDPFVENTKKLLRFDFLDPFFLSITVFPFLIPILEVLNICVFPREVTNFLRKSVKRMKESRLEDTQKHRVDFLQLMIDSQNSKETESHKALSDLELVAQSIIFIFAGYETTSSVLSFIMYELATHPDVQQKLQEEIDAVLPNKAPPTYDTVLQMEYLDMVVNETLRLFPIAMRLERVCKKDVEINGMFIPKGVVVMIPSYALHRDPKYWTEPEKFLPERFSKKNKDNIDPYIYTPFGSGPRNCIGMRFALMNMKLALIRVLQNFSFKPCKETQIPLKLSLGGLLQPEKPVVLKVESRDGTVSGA
row,"inhibition at 10 min, 10 µM [%]",Structure (SMILES)
1,53,O=C(NCc1ccncc1)Nc1ccc2cc(-c3ccccc3)nn2c1
2,0,O=C(NCc1ccncc1)Nc1ccc2nc(-c3ccc(OC(F)(F)F)cc3)nn2c1
3,37,O=C(NCc1ccncc1)Nc1ccc2nc(-c3ccccc3)nn2c1
4,0,O=C(NCc1ccncc1)Nc1ccc2nc(-c3cccc(OC(F)(F)F)c3)nn2c1
5,4,CC(C)n1nccc1-c1nc2ccc(NC(=O)NCc3ccncc3)cn2n1
6,40,Cn1cccc1-c1nc2ccc(NC(=O)NCc3ccncc3)cn2n1
7,75,O=C(NCc1ccncc1)Nc1ccc2cn(-c3ccccc3)nc2c1
8,0,O=C(NCc1cn[nH]c1)Nc1ccc2nc(-c3ccccc3)nn2c1
9,65,O=C(NCc1ccncc1)Nc1ccc2nc(-c3ccccc3OC(F)(F)F)nn2c1
10,18,COCCn1nccc1-c1nc2ccc(NC(=O)NCc3ccncc3)cn2n1
11,0,O=C(NCc1cnco1)Nc1ccc2nc(-c3ccccc3)nn2c1
12,25,Cn1nccc1-c1nc2ccc(NC(=O)NCc3ccncc3)cn2n1

# Tested on: not listed separately
# Assay: in vivo
# Settings: C57BL/6N, mouse, po, 10 mg/kg
row,Cmax [µM],Structure (SMILES)
1,9.2,O=C(NCc1ccncc1)Nc1ccc2nc(-c3ccccc3)nn2c1

# Tested on: not listed separately
# Assay: 1-Octanol/PBS buffer distribution coefficient, log D of the compound at pH 7.4
# Settings: not given
row,logD,Structure (SMILES)
1,4.4,O=C(NCc1ccncc1)Nc1ccc2nc(-c3ccc(OC(F)(F)F)cc3)nn2c1
2,3,O=C(NCc1ccncc1)Nc1ccc2nc(-c3ccccc3)nn2c1
3,2.6,Cn1cccc1-c1nc2ccc(NC(=O)NCc3ccncc3)cn2n1
4,3.2,O=C(NCc1ccncc1)Nc1ccc2cn(-c3ccccc3)nc2c1

# Tested on: not listed separately
# Assay: Solubility of the compound at pH 1.2
# Settings: buffer
row,solubility [mg/mL],Structure (SMILES)
1,> 0.68,O=C(NCc1ccncc1)Nc1ccc2nc(-c3ccccc3)nn2c1

# Target: T2, hERG (KCNH2) (Homo sapiens, UniProt Q12809)
# Assay: Inhibition of human ERG at 30 uM
# Settings: not given
# T2 sequence (Q12809 whole entry): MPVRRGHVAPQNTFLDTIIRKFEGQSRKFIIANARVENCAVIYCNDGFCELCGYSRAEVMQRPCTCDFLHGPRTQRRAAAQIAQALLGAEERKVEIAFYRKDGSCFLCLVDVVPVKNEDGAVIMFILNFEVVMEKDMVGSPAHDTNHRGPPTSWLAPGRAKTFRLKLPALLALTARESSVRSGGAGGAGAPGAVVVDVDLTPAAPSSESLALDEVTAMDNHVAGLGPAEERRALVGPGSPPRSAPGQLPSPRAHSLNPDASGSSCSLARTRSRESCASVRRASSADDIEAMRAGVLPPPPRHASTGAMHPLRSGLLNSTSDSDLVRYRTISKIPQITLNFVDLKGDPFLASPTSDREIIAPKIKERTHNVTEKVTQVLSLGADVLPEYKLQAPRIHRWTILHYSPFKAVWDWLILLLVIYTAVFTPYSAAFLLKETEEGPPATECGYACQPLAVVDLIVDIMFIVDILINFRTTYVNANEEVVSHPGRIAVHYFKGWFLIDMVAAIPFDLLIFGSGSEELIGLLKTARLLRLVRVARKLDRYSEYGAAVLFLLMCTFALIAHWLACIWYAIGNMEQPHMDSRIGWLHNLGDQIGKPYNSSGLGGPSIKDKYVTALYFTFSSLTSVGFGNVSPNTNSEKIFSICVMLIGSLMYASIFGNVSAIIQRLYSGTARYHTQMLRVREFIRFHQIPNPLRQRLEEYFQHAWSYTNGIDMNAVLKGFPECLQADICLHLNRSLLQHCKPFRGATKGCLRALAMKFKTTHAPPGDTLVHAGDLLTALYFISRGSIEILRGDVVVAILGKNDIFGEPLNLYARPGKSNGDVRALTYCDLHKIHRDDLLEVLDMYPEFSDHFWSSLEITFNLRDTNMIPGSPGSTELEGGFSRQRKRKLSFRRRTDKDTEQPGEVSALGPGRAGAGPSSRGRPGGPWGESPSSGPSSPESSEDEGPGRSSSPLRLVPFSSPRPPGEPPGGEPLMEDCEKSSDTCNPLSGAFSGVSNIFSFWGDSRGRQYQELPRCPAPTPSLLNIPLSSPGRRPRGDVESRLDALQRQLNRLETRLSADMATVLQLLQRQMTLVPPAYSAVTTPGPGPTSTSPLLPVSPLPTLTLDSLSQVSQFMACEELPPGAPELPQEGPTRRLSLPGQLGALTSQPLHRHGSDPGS
row,Structure (SMILES),inhibition at 30 µM [%]
1,O=C(NCc1ccncc1)Nc1ccc2nc(-c3ccccc3)nn2c1,69
2,Cn1nccc1-c1nc2ccc(NC(=O)NCc3ccncc3)cn2n1,25

# Tested on: not listed separately
# Assay: Metabolic stability in human microsome assessed as parent compound remaining at 1 uM measured after 30 mins
# Settings: microsomes
row,"remaining at 0.5 h, 1 µM [%]",Structure (SMILES)
1,95,O=C(NCc1ccncc1)Nc1ccc2nc(-c3ccccc3)nn2c1
2,87,O=C(NCc1ccncc1)Nc1ccc2cn(-c3ccccc3)nc2c1

# Tested on: not listed separately
# Assay: Permeability of the compound at pH 5 by PAMPA
# Settings: not given
row,Papp [nm/s],Structure (SMILES)
1,14.2,O=C(NCc1ccncc1)Nc1ccc2nc(-c3ccccc3)nn2c1
2,46,O=C(NCc1ccncc1)Nc1ccc2cn(-c3ccccc3)nc2c1

# Tested on: not listed separately
# Assay: Half life in C57BL/6N mouse at 10 mg/kg, po
# Settings: in vivo
row,half-life [min],Structure (SMILES)
1,54,O=C(NCc1ccncc1)Nc1ccc2nc(-c3ccccc3)nn2c1

# Tested on: not listed separately
# Assay: Metabolic stability in mouse microsome fraction assessed as parent compound remaining at 1 uM measured after 30 mins
# Settings: microsomes
row,"remaining at 0.5 h, 1 µM [%]",Structure (SMILES)
1,86,O=C(NCc1ccncc1)Nc1ccc2nc(-c3ccccc3)nn2c1
2,83,O=C(NCc1ccncc1)Nc1ccc2cn(-c3ccccc3)nc2c1

# Tested on: not listed separately
# Assay: in vivo
# Settings: C57BL/6N, mouse, po, 10 mg/kg
# Remark: another data set of the same source
row,AUC(0-t) at 24 h [µM·h],Structure (SMILES)
1,25,O=C(NCc1ccncc1)Nc1ccc2nc(-c3ccccc3)nn2c1

# Target: T1, Nicotinamide phosphoribosyltransferase
# Assay: Activation of human NAMPT assessed as increase in NMN production by fluorescence based analysis
# Settings: not given
row,EC50 [µM],Structure (SMILES)
1,> 100,O=C(NCc1ccncc1)Nc1ccc2nc(-c3ccc(OC(F)(F)F)cc3)nn2c1
2,0.48,Cc1ccc(C(=O)N2CCc3cc(NC(=O)NCc4ccncc4)ccc32)cc1
3,0.083,O=C(NCc1ccncc1)Nc1ccc2nc(-c3ccccc3)nn2c1
4,0.12,Cn1cccc1-c1nc2ccc(NC(=O)NCc3ccncc3)cn2n1
5,5.8,CC(C)c1nc2ccc(NC(=O)NCc3ccncc3)cn2n1

# Target: CYP2D6 (Homo sapiens, UniProt P10635)
# Assay: Inhibition of CYP2D6 (unknown origin) at 10 uM measured after 10 mins
# Assay type: ADME
# Settings: not given
# Sequence of CYP2D6 (P10635 whole entry): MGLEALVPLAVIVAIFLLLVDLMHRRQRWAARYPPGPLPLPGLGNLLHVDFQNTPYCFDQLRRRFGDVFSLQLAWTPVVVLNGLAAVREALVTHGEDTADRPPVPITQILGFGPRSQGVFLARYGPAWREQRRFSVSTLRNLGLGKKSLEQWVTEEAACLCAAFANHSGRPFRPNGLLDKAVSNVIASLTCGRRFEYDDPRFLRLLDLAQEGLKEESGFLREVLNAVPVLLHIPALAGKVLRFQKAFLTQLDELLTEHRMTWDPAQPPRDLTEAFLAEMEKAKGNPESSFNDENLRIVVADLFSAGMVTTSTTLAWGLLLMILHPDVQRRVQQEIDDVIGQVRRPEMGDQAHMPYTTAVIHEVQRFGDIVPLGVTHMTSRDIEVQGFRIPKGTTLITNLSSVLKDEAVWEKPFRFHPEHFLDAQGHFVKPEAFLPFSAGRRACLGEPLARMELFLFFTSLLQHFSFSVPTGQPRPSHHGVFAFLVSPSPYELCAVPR
row,"inhibition at 10 min, 10 µM [%]",Structure (SMILES)
1,70,O=C(NCc1ccncc1)Nc1ccc2cc(-c3ccccc3)nn2c1
2,24,O=C(NCc1ccncc1)Nc1ccc2nc(-c3ccc(OC(F)(F)F)cc3)nn2c1
3,21,O=C(NCc1ccncc1)Nc1ccc2nc(-c3ccccc3)nn2c1
4,36,O=C(NCc1ccncc1)Nc1ccc2nc(-c3cccc(OC(F)(F)F)c3)nn2c1
5,17,CC(C)n1nccc1-c1nc2ccc(NC(=O)NCc3ccncc3)cn2n1
6,27,Cn1cccc1-c1nc2ccc(NC(=O)NCc3ccncc3)cn2n1
7,50,O=C(NCc1ccncc1)Nc1ccc2cn(-c3ccccc3)nc2c1
8,23,O=C(NCc1cn[nH]c1)Nc1ccc2nc(-c3ccccc3)nn2c1
9,50,O=C(NCc1ccncc1)Nc1ccc2nc(-c3ccccc3OC(F)(F)F)nn2c1
10,13,COCCn1nccc1-c1nc2ccc(NC(=O)NCc3ccncc3)cn2n1
11,13,O=C(NCc1cnco1)Nc1ccc2nc(-c3ccccc3)nn2c1
12,16,Cn1nccc1-c1nc2ccc(NC(=O)NCc3ccncc3)cn2n1

# Tested on: not listed separately
# Assay: Permeability of the compound at pH 7.4 by PAMPA
# Settings: not given
row,Papp [nm/s],Structure (SMILES)
1,27.6,O=C(NCc1ccncc1)Nc1ccc2nc(-c3ccccc3)nn2c1
2,> 50,O=C(NCc1ccncc1)Nc1ccc2cn(-c3ccccc3)nc2c1

# Tested on: not listed separately
# Assay: Solubility of the compound at pH 6.8
# Settings: buffer
row,solubility [mg/mL],Structure (SMILES)
1,0.092,O=C(NCc1ccncc1)Nc1ccc2nc(-c3ccccc3)nn2c1

# Target: T2, hERG (KCNH2)
# Assay: Inhibition of human ERG at 3 uM
# Settings: not given
row,Structure (SMILES),inhibition at 3 µM [%]
1,O=C(NCc1ccncc1)Nc1ccc2nc(-c3ccccc3)nn2c1,20
2,Cn1nccc1-c1nc2ccc(NC(=O)NCc3ccncc3)cn2n1,11

# Target: T3, CYP1A2 (Homo sapiens, UniProt P05177)
# T3 sequence (P05177 whole entry): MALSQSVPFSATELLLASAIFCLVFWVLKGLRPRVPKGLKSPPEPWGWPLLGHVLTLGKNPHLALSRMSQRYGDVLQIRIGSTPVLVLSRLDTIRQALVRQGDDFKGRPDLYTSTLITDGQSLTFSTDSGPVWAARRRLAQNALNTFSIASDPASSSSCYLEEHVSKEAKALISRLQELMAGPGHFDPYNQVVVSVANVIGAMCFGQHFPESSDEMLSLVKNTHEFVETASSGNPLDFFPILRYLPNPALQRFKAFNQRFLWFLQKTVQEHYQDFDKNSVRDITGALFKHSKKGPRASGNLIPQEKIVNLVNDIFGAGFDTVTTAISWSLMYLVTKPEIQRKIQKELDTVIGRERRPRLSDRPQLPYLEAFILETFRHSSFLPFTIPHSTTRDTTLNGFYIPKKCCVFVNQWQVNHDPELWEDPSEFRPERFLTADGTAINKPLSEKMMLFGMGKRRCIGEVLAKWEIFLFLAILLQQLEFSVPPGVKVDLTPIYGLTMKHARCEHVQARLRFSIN
# Assay: Inhibition of CYP1A2 (unknown origin) at 10 uM measured after 10 mins
# Assay type: ADME
# Settings: not given
row,"inhibition at 10 min, 10 µM [%]",Structure (SMILES)
1,81,O=C(NCc1ccncc1)Nc1ccc2cc(-c3ccccc3)nn2c1
2,8,O=C(NCc1ccncc1)Nc1ccc2nc(-c3ccc(OC(F)(F)F)cc3)nn2c1
3,63,O=C(NCc1ccncc1)Nc1ccc2nc(-c3ccccc3)nn2c1
4,28,O=C(NCc1ccncc1)Nc1ccc2nc(-c3cccc(OC(F)(F)F)c3)nn2c1
5,12,CC(C)n1nccc1-c1nc2ccc(NC(=O)NCc3ccncc3)cn2n1
6,51,Cn1cccc1-c1nc2ccc(NC(=O)NCc3ccncc3)cn2n1
7,88,O=C(NCc1ccncc1)Nc1ccc2cn(-c3ccccc3)nc2c1
8,86,O=C(NCc1cn[nH]c1)Nc1ccc2nc(-c3ccccc3)nn2c1
9,43,O=C(NCc1ccncc1)Nc1ccc2nc(-c3ccccc3OC(F)(F)F)nn2c1
10,6,COCCn1nccc1-c1nc2ccc(NC(=O)NCc3ccncc3)cn2n1
11,69,O=C(NCc1cnco1)Nc1ccc2nc(-c3ccccc3)nn2c1
12,15,Cn1nccc1-c1nc2ccc(NC(=O)NCc3ccncc3)cn2n1

# Target: T2, hERG (KCNH2)
# Assay: Inhibition of human ERG at 10 uM
# Settings: not given
row,Structure (SMILES),inhibition at 10 µM [%]
1,O=C(NCc1ccncc1)Nc1ccc2nc(-c3ccccc3)nn2c1,51
2,Cn1nccc1-c1nc2ccc(NC(=O)NCc3ccncc3)cn2n1,14

# Target: CYP2C9 (Homo sapiens, UniProt P11712)
# Assay: Inhibition of CYP2C9 (unknown origin) at 10 uM measured after 10 mins
# Assay type: ADME
# Settings: not given
# Sequence of CYP2C9 (P11712 whole entry): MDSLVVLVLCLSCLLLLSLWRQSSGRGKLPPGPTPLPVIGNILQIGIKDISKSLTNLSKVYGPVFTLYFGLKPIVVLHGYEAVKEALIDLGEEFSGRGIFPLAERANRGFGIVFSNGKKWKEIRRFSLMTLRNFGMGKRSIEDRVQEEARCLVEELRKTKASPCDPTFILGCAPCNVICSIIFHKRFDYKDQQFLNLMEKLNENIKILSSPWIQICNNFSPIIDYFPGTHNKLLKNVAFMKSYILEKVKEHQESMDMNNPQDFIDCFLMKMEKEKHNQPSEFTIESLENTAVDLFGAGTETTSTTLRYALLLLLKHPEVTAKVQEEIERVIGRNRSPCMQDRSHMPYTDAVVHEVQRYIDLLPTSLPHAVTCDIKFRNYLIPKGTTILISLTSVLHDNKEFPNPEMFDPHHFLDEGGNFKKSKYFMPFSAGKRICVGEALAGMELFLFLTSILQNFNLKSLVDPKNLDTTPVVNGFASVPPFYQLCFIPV
row,"inhibition at 10 min, 10 µM [%]",Structure (SMILES)
1,78,O=C(NCc1ccncc1)Nc1ccc2cc(-c3ccccc3)nn2c1
2,81,O=C(NCc1ccncc1)Nc1ccc2nc(-c3ccc(OC(F)(F)F)cc3)nn2c1
3,79,O=C(NCc1ccncc1)Nc1ccc2nc(-c3ccccc3)nn2c1
4,90,O=C(NCc1ccncc1)Nc1ccc2nc(-c3cccc(OC(F)(F)F)c3)nn2c1
5,79,CC(C)n1nccc1-c1nc2ccc(NC(=O)NCc3ccncc3)cn2n1
6,75,Cn1cccc1-c1nc2ccc(NC(=O)NCc3ccncc3)cn2n1
7,74,O=C(NCc1ccncc1)Nc1ccc2cn(-c3ccccc3)nc2c1
8,59,O=C(NCc1cn[nH]c1)Nc1ccc2nc(-c3ccccc3)nn2c1
9,78,O=C(NCc1ccncc1)Nc1ccc2nc(-c3ccccc3OC(F)(F)F)nn2c1
10,44,COCCn1nccc1-c1nc2ccc(NC(=O)NCc3ccncc3)cn2n1
11,59,O=C(NCc1cnco1)Nc1ccc2nc(-c3ccccc3)nn2c1
12,42,Cn1nccc1-c1nc2ccc(NC(=O)NCc3ccncc3)cn2n1
